{"source": "ChEMBL document CHEMBL1154845", "about": "“Neocomplanines A and B, a complanine family isolated from the marine fireworm” (J Nat Prod, 2010)", "key": {"[1]": {"assay": "Activation of PKC assessed as [gamma32P] incorporation at 2 mM after 15 mins by scintillation counting in presence of TPA"}, "Mus musculus": {"system": "Mus musculus", "assay": "Toxicity in sc dosed mouse assessed as foot-pad swelling over 5 hrs relative to control", "format": "organism-based", "conditions": "in vivo"}, "[2]": {"assay": "Activation of PKC assessed as [gamma32P] incorporation at greater than 0.5 mM after 15 mins by scintillation counting in presence of Ca2+"}, "[3]": {"assay": "Activation of PKC assessed as [gamma32P] incorporation after 15 mins by scintillation counting in presence of TPA"}}, "note": "The source made the active and inactive calls. The rule behind the calls is not given here.", "data": [{"smiles": "CC/C=C\\C/C=C\\CC[C@@H](O)CNC(=O)CCC[N+](C)(C)C.[I-]", "note": "[COMPLANINE]", "values": [{"measurement": "Activity", "setting": "[1]", "result": 10.9, "unit": "pmol/min"}, {"measurement": "Activity", "setting": "Mus musculus", "result": "Toxic"}]}, {"smiles": "CCCCCCCC(O)CNC(=O)CCC[N+](C)(C)C.[I-]", "note": "(stereo not drawn) [NEOCOMPLANINE B]", "values": [{"measurement": "Activity", "setting": "[2]", "result": "Active"}, {"measurement": "Activity", "setting": "[3]", "result": "Dose-dependent effect"}, {"measurement": "Activity", "setting": "Mus musculus", "result": "Toxic"}]}, {"smiles": "CC(C)CCCCC(O)CNC(=O)CCC[N+](C)(C)C.[I-]", "note": "(stereo not drawn) [NEOCOMPLANINE A]", "values": [{"measurement": "Activity", "setting": "[2]", "result": "Active"}, {"measurement": "Activity", "setting": "[3]", "result": "Dose-dependent effect"}, {"measurement": "Activity", "setting": "Mus musculus", "result": "Toxic"}]}]}
